We go through two molecules from paper PMC10002963, “[4+2]-Cycloaddition to 5-Methylidene-Hydantoins and 5-Methylidene-2-Thiohydantoins in the Synthesis of Spiro-2-Chalcogenimidazolones” (International Journal of Molecular Sciences, 2023).

One assay has as its system HEK293T cell line. Nature of the assay: MTT cytotoxicity assay, HEK293T. In kind it is cell-based, human. The following applies: Homo sapiens, HEK-293T, 65-h treatment, Cmax 100 µM, read-out: IC50abs. Here is the method:
(§1) Some of the obtained spiro-derivatives were tested for cytotoxicity using the standard MTT assay. Cytotoxicity was evaluated using the cell lines of various etiologies: breast cancer MCF7, human lung carcinoma A549, non-cancer human embryonic kidney cell line HEK293T, and non-cancer lung fibroblast VA13 cell line. Lung cancers and breast cancers are among the most common causes of tumor lesions and related death in the world, and non-cancerous cells were applied for the specificity of action evaluation. The results are shown in Table 5; the dose-response dependency graphs are available in Supplementary Information.
(§2) Cell cultures. Human embryonic kidney HEK293T cell line was kindly provided by Dr. E. Knyazhanskaya; immortalized human fibroblasts cell line VA13 was kindly provided by Dr. M. Rubtsova; human breast cancer cell line MCF7 and human lung adenocarcinoma cell line A549 were kindly provided by Dr. S. Dmitriev. MCF7, VA13, A549, and HEK293T cell lines were maintained in DMEM/F-12 (Thermo Fisher Scientific, Waltham, Massachusetts, USA) culture medium containing 10% fetal bovine serum (Thermo Fisher Scientific, Waltham, Massachusetts, USA) and 50 µg/mL penicillin and 0.05 mg/mL streptomycin at 37°C (Thermo Fisher Scientific, Waltham, Massachusetts, USA) in 5% CO2. Cells were maintained at 37°C in a humidified incubator MCO-18AC (Sanyo, Japan) supplied with 5% CO2. Cell cultures were tested for the absence of mycoplasma.
(§3) In Vitro Survival Assay (MTT Assay). The cytotoxicity was tested using the MTT (3-(4,5-dimethylthiazol-2-yl)2,5-diphenyl tetrazolium bromide) assay with some modifications. A total of 2500 cells per well for the MCF7, HEK293T cell lines, 3000 cells for the A549 cell line, or 4000 cells per well for the VA-13 cell line were plated out in 135 µL of DMEM-F12 media (Gibco, USA) in a 96-well plate and then incubated in the 5% CO2 incubator for first 20 h without treating. After this, 15 µL of media-DMSO solutions of tested substances were added to the cells (final DMSO concentrations in the media were 0,5% or less) and treated for65 h with 45 nM–100 µM (eight dilutions) of our substances (triplicate each) and doxorubicin as a control substance. Then the MTT reagent (Paneco LLC, Moscow, Russia) was added to cells up to the final concentration of 0.5 g/L (10 × stock solution in PBS was used), and cells were incubated for 2 h at 37 °C under an atmosphere of 5% CO2. Then the MTT solution was discarded, and 140 µL of DMSO (PharmaMed LLC, Russia) was added. The plates were swayed on a shaker (200 rpm) to dissolve the formazan. The absorbance was measured using a microplate reader (VICTOR ×5 Light Plate Reader, PerkinElmer, USA) at a wavelength of 555 nm (in order to measure formazan concentration). The results were used to construct dose-response graphs and to estimate IC50absvalues (IC50abs is the concentration resulting in a two-fold decrease in the number of cells in comparison with the untreated cells) and, in some cases, IC50 values (IC50 is the concentration resulting in half of the maximal cytotoxic effect) with GraphPadSoftware, Inc., San Diego, CA, USA.
In general terms: Formazan colour is commonly taken as a measure of viable cells.

In the next assay the test system is MCF7 cell line. Briefly: MTT cytotoxicity assay, MCF7. Type of assay: cell-based, human. The following applies: Homo sapiens; MCF7, 65-h treatment, MTT; Cmax 100 µM; read-out: IC50abs. Here is the method: as §1, §2, §3
Another assay concerns VA13 cell line. Nature of the assay: MTT cytotoxicity assay, VA13. In kind it is cell-based, human. The following applies: Homo sapiens, VA-13, VA13, 65-h treatment, MTT, Cmax 100 µM. Here is the method: as §1, §2, §3
The subject of the next assay is A549 cell line. Briefly: MTT cytotoxicity assay, A549. Type of assay: cell-based, human. The following applies: Homo sapiens, A549, 65-h treatment, MTT, Cmax 100 µM. On the procedure: as §1, §2, §3
A further assay deals with E. coli BW25113 DTC. Briefly: Minimal inhibitory concentration, E. coli BW25113 DTC. As to conditions: Escherichia coli, BW25113. Type of assay: cell-based, Escherichia coli. On the procedure: (§4) Then the minimal inhibitory concentration (MIC) was measured for E. coli BW25113 DTC and E. coli K-12 (WT) for the 12 most bacteriotoxic compounds from the plate test.
(§5) Determination of Minimal Inhibitory Concentration (MIC). MIC values were determined by monitoring growth in 96-well plates of E. coli cultures exposed to serial dilutions of compounds. Specifically, overnight E. coli BW25113 DTC and K12 cultures were diluted in 96-well plates to an OD590 of 0.01 in LB medium. The wells were then supplemented with the solution of each tested compound at concentrations of 1 mM, 500 µM, 250 µM, 125 µM, 62.5 µM, 31.25 µM, 15.63 µM, 7.81 µM, 3.91 µM, and 1.95 µM. Then the plates were incubated with shaking (200 r.p.m.) overnight at 37°C, and cell growth was assessed by scanning OD590 each well with a VictorX5 reader.

The subject of another assay is E. coli K-12 (WT). Nature of the assay: Minimal inhibitory concentration, E. coli K-12. Type of assay: cell-based, Escherichia coli. The following applies: Escherichia coli, LB medium, overnight 37°C, >1000 = inactive in this test. Here is the method: as §4, §5
[1] abbreviates: marked **, read-out: IC50abs, calculated by data extrapolation, exceeds Cmax.

In brackets after ≈: the same amount, converted by molar mass. Read-outs that look alike come from different tables or passages of the source.

For `Cc1cccc(N2C(=O)N[C@@]3(C[C@@H]4C=C[C@H]3C4)C2=O)c1` [Compound 76], the IC50 with HEK293T cell line is 48.6 ± 2.4 µM; in the assay with MCF7 cell line, 86.4 ± 7.3 µM; with VA13 cell line (setting [1]), greater than 100 µM; with A549 cell line (setting [1]), greater than 100 µM. Also, the MIC – broadly, the least concentration at which growth counts as inhibited – with E. coli BW25113 DTC was 125 µM (≈ 33.5 µg/mL); in the assay with E. coli K-12 (WT), greater than 1000 µM.

With `CSC1=NC2(CC3C=CC2C3)C(=O)N1c1ccccc1` (stereo not drawn) [Compound 72], the IC50 with HEK293T cell line is 60.1 ± 3.4 µM; in the assay on MCF7 cell line, greater than 100 µM; in the assay on VA13 cell line (read-out: IC50abs), greater than 100 µM; in the assay with A549 cell line (read-out: IC50abs), greater than 100 µM. Also, the values for the MIC with E. coli BW25113 DTC and against E. coli K-12 (WT) were 500 µM (≈ 142 µg/mL) and greater than 1000 µM, respectively.
